Test results: patent publication US11828750B2, “Material for screening for compound acting on ION channel and use thereof” (PUBLIC UNIVERSITY CORPORATION NAGOYA CITY UNIVERSITY, priority 2016, dated 2023)
pIC50: −log10 of the molar value.

Columns and labels:
[1] = target: T1, hTREK-1 (Homo sapiens, UniProt O95069); assay: Cell death assay (MTT method) in TREK-1 test cells (hTREK-1#Kir 2.1#mutated Nav HEK293 cells); type: cell-based; details: 37° C.
T1 construct: expressed in transfected cells; host or cells: HEK293 cells stably expressing Kir 2.1 and Nav 1.5 IFM/QQQ; hTREK-1 in pcDNA3.1(+)
T1 sequence (O95069 1-422 isoform O95069-3): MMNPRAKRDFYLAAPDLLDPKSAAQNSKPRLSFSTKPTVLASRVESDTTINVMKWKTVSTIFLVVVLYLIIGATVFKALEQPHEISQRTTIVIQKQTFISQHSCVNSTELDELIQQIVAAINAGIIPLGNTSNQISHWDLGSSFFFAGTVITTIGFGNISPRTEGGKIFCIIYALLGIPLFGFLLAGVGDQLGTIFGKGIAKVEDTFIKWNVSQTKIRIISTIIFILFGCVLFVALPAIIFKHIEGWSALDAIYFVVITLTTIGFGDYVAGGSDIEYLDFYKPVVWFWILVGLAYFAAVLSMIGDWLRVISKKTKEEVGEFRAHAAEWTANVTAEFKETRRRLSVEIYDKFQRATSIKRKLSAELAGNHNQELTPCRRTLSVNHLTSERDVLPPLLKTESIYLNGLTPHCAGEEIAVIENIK
Description: (Cell Culture and Gene Insertion) Human-derived embryonic kidney cells (HEK293 cells) were purchased from the Health Sciences Research Resource Bank (HSRRB). 10% fetal bovine serum (FBS, Gibco Corp.) was added thereto followed by culturing at 37° C. in 5% CO2 in Dulbecco's Modified Eagle Medium (D-MEM, Wako Pure Chemical Industries, Ltd.) containing 100 U/ml penicillin (Wako Pure Chemical Industries, Ltd.) and 100 μg/ml streptomycin (Meiji Seika Kaisha, Ltd.). pcDNA3.1/Kir 2.1, obtained by subcloning human-derived Kir 2.1 (NM #000891) in pcDNA3.1(+) (Invitrogen Corp.), was inserted using Lipofectamine 2000 (Invitrogen Corp.) followed by culturing in medium obtained by adding 0.2 mg/ml Zeocin (Invitrogen Corp.) to the above-mentioned D-MEM medium and then cloning Zeocin resistant cells to prepare Kir 2.1 constantly expressing cells (HEK#Kir). In addition, the deactivation mutant Nav 1.5 IFM/QQQ was inserted into the Kir 2.1 constantly expressing cells using the same method (HEK#Kir#mutated Nav).
Proceeding as above, hTREK-1#Kir 2.1 #mutated Nay cells (referred to herebelow as TREK-1 test cells) were prepared by subcloning hTREK-1 (GenBank Accession Number: NM #001017424), a type of human-derived K2P channel, in pcDNA3.1(+) and inserting it in the previously prepared Kir 2.1 #mutated Nav cells. […]

[2] = tested on: hTASK-1; assay: Cell death assay in TASK-1 test cells (hTASK-1 transiently expressing Kir 2.1#mutated Nav cells); type: cell-based, human
Description: With the TREK-1 test cells, the culture medium was replaced with measurement buffer (137 mM NaCl, 5.9 mM KCl, 2.2 mM CaCl2, 1.2 mM MgCl2, 14 mM glucose, 10 mM HEPES (pH 7.4 with NaOH), this also applies in the following) and BaCl2 was added to provide 200 μM Ba ion, a Kir 2.1 inhibitor. This was followed by incubation for approximately 12 hours under conditions of 37° C., atmospheric pressure, and 5% CO2 and monitoring of cell death. […] The measurement of cell death was carried out using the MTT method with reference to a paper by the present inventors (Yamazaki, D., et al., Am J Physiol Cell Physiol 300, C75-86, 2011).
hTASK-1 (the Δi20 mutant was used due to poor transfer to the cell membrane by the wild type, resulting in the problems of a small current and measurement difficulties. This mutant is reported to readily transfer to the membrane. Renigunta et al., Traffic 7:168-181, 2006) and hTASK-3 (GenBank Accession Number: NM #001282534), which are types of human-derived K2P channels, were subcloned in a baculovirus vector, a viral vector, and were inserted into the Kir 2.1 #mutated Nav cells prepared in Second Embodiment to prepare hTASK-1 transiently expressing TASK-1#Kir 2.1 #mutated Nav cells and hTASK-3 transiently expressing hTASK-3#Kir 2.1 #mutated Nav cells (referred to herebelow as TASK-1 test cells and TASK-3 test cells), respectively, which transiently expressed hTASK-1 and hTASK-3. Sf-900 III SFM (Thermo Fisher Scientific) was used for the culture medium for baculovirus vector production, and Dulbecco's Modified Eagle Medium (D-MEM) culture medium supplemented with 10% fetal bovine serum (FBS) was used as the culture medium for the test cells.
For TASK-3 this was the same as the literature value of 35 nM (Coburn et al., Chem Med Chem., 7(1), 123-33, 2012).

[3] = target: T2, hTASK-3 (Homo sapiens, UniProt Q9NPC2); assay: Cell death assay in TASK-3 test cells (hTASK-3 transiently expressing Kir 2.1#mutated Nav cells); type: cell-based; details: 200 μM Ba ion
T2 construct: expressed in transfected cells; host or cells: HEK293 Kir 2.1 + mutated Nav cells, transient expression via baculovirus vector
Source text: Sf-900 III SFM (Thermo Fisher Scientific) was used for the culture medium for baculovirus vector production, and Dulbecco's Modified Eagle Medium (D-MEM) culture medium supplemented with 10% fetal bovine serum (FBS) was used as the culture medium for the test cells.

[4] = target: T3, hSK4 (Homo sapiens, UniProt O15554); assay: Cell death assay in SK4 test cells (Kir 2.1+IFM/QQQ+SK4 cells); type: cell-based; details: in the presence of 100 nM Ca ion
T3 construct: expressed in transfected cells; host or cells: HEK293 Kir 2.1 + mutated Nav cells, transient expression via baculovirus vector
Source text: (§1) hSK2 and hSK4, which are each one type of human-derived Ca ion-activated ion channel, were respectively subcloned in a baculovirus vector, which is a viral vector, and were inserted into the Kir 2.1 #mutated Nav cells prepared in Second Embodiment to prepare hSK2 transiently expressing Kir 2.1+IFM/QQQ+SK2 cells (referred to herebelow as SK2 test cells) and hSK4 transiently expressing Kir 2.1+IFM/QQQ+SK4 cells (referred to herebelow as SK4 test cells). Sf-900 III SFM (Thermo Fisher Scientific) was used for the culture medium for baculovirus vector production, and Dulbecco's Modified Eagle Medium (D-MEM) culture medium supplemented with 10% fetal bovine serum (FBS) was used as the culture medium for the test cells.

[5] = target: T4, hSK2 (Homo sapiens, UniProt Q9H2S1); assay: Cell death assay in SK2 test cells (Kir 2.1+IFM/QQQ+SK2 cells); type: cell-based
T4 construct: expressed in transfected cells; host or cells: HEK293 Kir 2.1 + mutated Nav cells, transient expression via baculovirus vector
Source text: as §1

[6] = target: TASK-1 (Homo sapiens, UniProt O14649); details: Zou et al. 2010; read-out: reported IC50 for TASK-1; cited from earlier work
Chain of TASK-1 (O14649 whole entry, species assumed): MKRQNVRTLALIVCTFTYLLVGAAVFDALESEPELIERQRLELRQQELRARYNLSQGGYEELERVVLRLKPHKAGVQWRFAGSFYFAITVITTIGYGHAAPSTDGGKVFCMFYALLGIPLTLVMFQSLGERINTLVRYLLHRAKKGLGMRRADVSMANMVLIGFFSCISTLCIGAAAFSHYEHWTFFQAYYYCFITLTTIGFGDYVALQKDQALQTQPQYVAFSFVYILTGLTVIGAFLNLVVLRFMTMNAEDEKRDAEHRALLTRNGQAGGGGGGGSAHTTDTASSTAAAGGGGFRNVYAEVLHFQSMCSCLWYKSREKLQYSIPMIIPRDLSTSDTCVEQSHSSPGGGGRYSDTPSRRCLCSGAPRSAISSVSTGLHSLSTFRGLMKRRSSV

T2 sequence (Q9NPC2 whole entry): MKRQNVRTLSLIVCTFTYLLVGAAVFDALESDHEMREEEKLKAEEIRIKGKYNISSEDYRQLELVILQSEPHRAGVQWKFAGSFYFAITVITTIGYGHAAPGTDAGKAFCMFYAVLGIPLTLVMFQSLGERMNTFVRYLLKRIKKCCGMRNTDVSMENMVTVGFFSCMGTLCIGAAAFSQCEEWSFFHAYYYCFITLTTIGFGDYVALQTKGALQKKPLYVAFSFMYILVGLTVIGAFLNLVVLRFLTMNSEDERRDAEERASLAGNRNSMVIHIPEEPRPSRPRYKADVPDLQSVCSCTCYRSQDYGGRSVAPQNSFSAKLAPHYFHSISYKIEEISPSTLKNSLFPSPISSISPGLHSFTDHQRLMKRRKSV

Compound: [Ba+2].[Cl-].[Cl-] [Ba ion, BaCl2]
- cell death with Ba ion alone ([1]; 200 μM Ba ion, TREK-1 test cells): cell death was not produced
- cell death with Ba ion alone ([2]; 200 μM Ba ion): cell death was not produced
- cell death with Ba ion alone [3]: cell death was not produced

Compound: CCn1c(=O)[nH]c2cc(Cl)c(Cl)cc21 [DCEBIO, 5,6-dichloro-1-ethyl-1,3-dihydro-2H-benzimidazole-2-one]
- cell death of SK4 test cells on addition of activator [4]: cell death of the SK4 test cells was inhibited

Compound: O=C1Nc2c(ccc(Cl)c2Cl)C1=NO [NS309, 3-oxime-6,7-dichloro-1H-indole-2,3-dione]
- cell death of SK2 test cells on addition of activator ([5]; in the presence of 100 nM Ca ion): cell death of the SK2 test cells was inhibited

Compound: c1cc2cc(c1)C[n+]1ccc(c3ccccc31)NCc1ccc(cc1)CNc1cc[n+](c3ccccc13)C2 [UCL1684]
- effect of inhibitor on NS309-mediated inhibition of cell death ([5]; added together with NS309, 100 nM Ca ion): the NS309-mediated inhibition of cell death was extinguished

Compound: Nc1ncnc2c1nc(Br)n2[C@@H]1O[C@@H]2COP(=O)(O)O[C@H]2[C@H]1O [8-Br-cAMP]
- cell death on supply of TREK-1 inhibitor ([1]; in the presence of 200 μM Ba ion, approximately 12 hours, MTT method): Cell death was observed

Compound: ML365
- induction of cell death by inhibitor ([2]; in the presence of 200 μM Ba ion): cell death was observed in a concentration-dependent regime
- concentration above which a sharp increase in the induction of cell death occurred ([2]; in the presence of Ba ion): > 11.5 nM
- pIC50 [6]: 7.92
